Patent US11584755B2 (IDEAYA BIOSCIENCES, INC., priority 2017, dated 2023)

Key:
Type in all cases: biochemical
[1] = target: hFEN1 (Homo sapiens (Human), UniProt P39748); assay: Enzymatic IC50 assay, FAM-labeled DNA oligomer substrate, fluorescence intensity (FEN1); conditions: hFEN1 70 pM, substrate 100 nM, reaction time 20 minutes, 23° C.
Method in brief: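 FEN1, EXO1 or XPG was preincubated 15 min with compound, then the FAM-labelled DNA oligomer substrate was added in Tris-HCl pH 8.0 with 10 mM MgCl2 at 23° C. FEN1 was 70 pM with 100 nM substrate for 20 min, EXO1 6 nM with 30 nM for 60 min, and XPG 100 nM with 100 nM for 120 min. Reactions were EDTA-stopped and read by fluorescence intensity.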

[2] = target: hEXO1, Isoform1 (Homo sapiens (Human), UniProt Q9UQ84); assay: Enzymatic IC50 assay, FAM-labeled DNA oligomer substrate, fluorescence intensity (EXO1); conditions: hEXO1 6 nM, substrate 30 nM, reaction time 60 minutes, 23° C.
Experimental: (§1) FEN1, EXO1 or XPG enzyme was incubated with compound or vehicle (DMSO) and the FAM-labeled DNA oligomer substrate in a microtiter plate. The stop buffer contains EDTA to stop the enzymatic reaction. The plate is read for fluorescence intensity. The high control (DMSO) with high fluorescence intensity represents no inhibition of enzymatic reaction while the low control (10 μM) with low fluorescence intensity represents full inhibition of enzymatic reaction.
(§2) • FEN1 • hFEN1: 70 pM • Substrate: 100 nM • Reaction time: 20 minutes • EXO1 • hEXO1: 6 nM, Isoforml • Substrate: 30 nM • Reaction time: 60 minutes • XPG • hXPG: 100 nM • Substrate: 100 nM • Reaction time: 120 minutes
(§3) Annealing Buffer: 50 mM Tris-HCl, 50 mM NaCl, 1 mM DTT Assay buffer: 50 mM Tris-HCl pH 8.0, 10 mM MgCl2, 0.01% BSA, 1 mM DTT Stop buffer: 50 mM EDTA in assay buffer Temperature: 23° C. Total volume: 40 μl Controls: • 0% inhibition control: DMSO • 100% inhibition control: 10 μM (final) 5-chloro-3-hydroxy-1,3-dihydroquinazoline-2,4-dione Enzyme Reaction and Detection: • 1. Prepare 25 μM intermediate stock of the substrate by diluting SEQ ID NO:1, SEQ ID NO:2, and SEQ ID NO:3 in annealing buffer, in a PCR tube. • 2. Place the PCR tube on a heat block, heat at 95° C. for 3 minutes, then drop in 0.2° C. increments over 2 minutes, stopping at 25° C. • 3. Remove the tube and let the tube cool at room temperature. • 4. Transfer 10 μL of 3× final concentration test compounds or DMSO to the appropriate wells of a microtiter plate. • 5. Transfer 10 μL of 3× final concentration enzyme in assay buffer or assay buffer alone to the appropriate wells. • 6. Incubate the plate at room temperature for 15 minutes. • 7. Transfer 10 μL of 3× substrate in assay buffer to all the test wells. • 8. Incubate the plate at room temperature for prescribed reaction time. • 9. Centrifuge the plate at 1000 rpm for 1 minute. • 10. Transfer 10 μL of stop buffer to all the test wells. • 11. Centrifuge the plate at 1000 rpm for 1 minute. • 12. Read the plate on a plate reader.

[3] = target: hXPG (Homo sapiens (Human), UniProt P28715); assay: Enzymatic IC50 assay, FAM-labeled DNA oligomer substrate, fluorescence intensity (XPG); conditions: hXPG 100 nM, substrate 100 nM, reaction time 120 minutes, 23° C.
Experimental: as §1, §2, §3

hEXO1, Isoform1, sequence (Q9UQ84 whole entry, canonical isoform): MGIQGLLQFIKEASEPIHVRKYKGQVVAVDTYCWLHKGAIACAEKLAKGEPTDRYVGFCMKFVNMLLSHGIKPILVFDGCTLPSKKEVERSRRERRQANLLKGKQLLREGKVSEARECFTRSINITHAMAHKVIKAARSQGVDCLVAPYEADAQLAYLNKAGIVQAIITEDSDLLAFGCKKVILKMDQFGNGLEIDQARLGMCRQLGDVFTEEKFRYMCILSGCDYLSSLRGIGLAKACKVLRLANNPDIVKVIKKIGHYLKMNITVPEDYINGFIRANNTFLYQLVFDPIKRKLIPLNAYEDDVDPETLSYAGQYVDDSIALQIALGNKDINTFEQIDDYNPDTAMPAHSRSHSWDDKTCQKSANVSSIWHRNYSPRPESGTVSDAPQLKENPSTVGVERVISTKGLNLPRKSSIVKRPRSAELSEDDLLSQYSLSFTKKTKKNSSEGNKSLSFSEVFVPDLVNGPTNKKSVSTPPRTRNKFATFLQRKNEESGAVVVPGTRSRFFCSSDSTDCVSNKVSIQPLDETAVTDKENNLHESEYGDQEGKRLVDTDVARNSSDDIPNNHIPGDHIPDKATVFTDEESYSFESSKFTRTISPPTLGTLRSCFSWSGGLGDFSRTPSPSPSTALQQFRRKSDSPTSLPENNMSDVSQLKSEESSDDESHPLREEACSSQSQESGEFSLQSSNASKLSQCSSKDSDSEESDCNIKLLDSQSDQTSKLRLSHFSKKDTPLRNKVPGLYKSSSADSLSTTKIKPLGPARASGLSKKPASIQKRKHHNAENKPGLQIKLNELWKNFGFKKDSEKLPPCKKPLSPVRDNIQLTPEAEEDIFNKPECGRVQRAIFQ
hFEN1, sequence (P39748 whole entry): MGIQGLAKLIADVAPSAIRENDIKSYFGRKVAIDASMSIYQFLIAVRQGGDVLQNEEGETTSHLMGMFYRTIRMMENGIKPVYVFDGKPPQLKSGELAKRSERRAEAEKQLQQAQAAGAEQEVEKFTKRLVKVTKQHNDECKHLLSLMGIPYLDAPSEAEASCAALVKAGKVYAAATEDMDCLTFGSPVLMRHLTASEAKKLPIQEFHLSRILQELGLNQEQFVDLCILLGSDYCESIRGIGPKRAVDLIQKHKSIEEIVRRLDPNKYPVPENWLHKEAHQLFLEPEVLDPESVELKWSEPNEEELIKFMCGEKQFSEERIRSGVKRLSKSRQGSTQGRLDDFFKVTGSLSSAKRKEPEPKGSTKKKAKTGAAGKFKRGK
hXPG, sequence (P28715 whole entry): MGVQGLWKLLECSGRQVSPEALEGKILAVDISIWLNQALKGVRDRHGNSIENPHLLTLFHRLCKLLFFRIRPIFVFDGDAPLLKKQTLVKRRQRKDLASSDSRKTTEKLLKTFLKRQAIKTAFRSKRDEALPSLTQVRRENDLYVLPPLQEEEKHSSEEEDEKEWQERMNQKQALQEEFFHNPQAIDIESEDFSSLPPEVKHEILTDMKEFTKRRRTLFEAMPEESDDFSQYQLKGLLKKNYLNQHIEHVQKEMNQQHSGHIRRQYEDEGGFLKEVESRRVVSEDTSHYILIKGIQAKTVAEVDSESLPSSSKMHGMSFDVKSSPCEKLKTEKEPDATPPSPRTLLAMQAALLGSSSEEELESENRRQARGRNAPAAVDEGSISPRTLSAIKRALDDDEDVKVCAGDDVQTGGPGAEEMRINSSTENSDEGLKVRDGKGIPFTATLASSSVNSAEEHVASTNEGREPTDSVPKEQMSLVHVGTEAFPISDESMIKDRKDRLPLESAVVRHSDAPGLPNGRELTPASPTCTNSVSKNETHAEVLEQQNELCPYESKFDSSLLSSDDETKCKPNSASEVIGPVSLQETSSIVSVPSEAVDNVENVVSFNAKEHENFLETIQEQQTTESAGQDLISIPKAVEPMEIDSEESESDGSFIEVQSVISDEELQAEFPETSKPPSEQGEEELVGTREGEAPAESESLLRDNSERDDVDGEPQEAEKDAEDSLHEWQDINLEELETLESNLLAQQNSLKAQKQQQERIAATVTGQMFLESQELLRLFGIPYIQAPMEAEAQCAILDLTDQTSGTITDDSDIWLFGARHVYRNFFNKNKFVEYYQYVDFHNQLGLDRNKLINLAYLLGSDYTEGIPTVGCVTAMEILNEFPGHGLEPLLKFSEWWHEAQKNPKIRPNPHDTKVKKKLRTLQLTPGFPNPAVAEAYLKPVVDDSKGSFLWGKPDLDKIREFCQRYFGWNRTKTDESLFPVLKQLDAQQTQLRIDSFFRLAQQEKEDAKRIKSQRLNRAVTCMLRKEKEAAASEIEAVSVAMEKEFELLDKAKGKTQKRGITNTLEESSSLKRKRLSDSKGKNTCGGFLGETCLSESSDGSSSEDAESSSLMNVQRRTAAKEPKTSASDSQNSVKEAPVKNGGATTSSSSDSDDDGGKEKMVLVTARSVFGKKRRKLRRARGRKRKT

Row | IC50 [1] [nM] | IC50 [2] [nM] | IC50 [3] [nM] | SMILES
1 | < 200 | 2250 to 10000 | 2250 to 10000 | O=C(O)c1c(O)c(=O)n(Cc2cnn(CCc3ccncc3)c2)c2ccsc12 [Example 28, 6-hydroxy-5-oxo-4-({1-[2-(4-pyridyl)ethyl]pyrazol-4-yl}methyl)thieno[3,2-b]pyridine-7-carboxylic acid]
2 | 750 to 2250 | 250 to 750 | 2250 to 10000 | COc1ccc(Cn2c(=O)c(O)c(C(=O)O)c3sc(C4CC4)cc32)cc1 [Example 30, 2-cyclopropyl-6-hydroxy-4-(4-methoxybenzyl)-5-oxo-4,5-dihydrothieno[3,2-b]pyridine-7-carboxylic acid]
3 | < 200 | 2250 to 10000 | 2250 to 10000 | Nc1ccc(Cn2c(=O)c(O)c(C(=O)O)c3sccc32)cc1 [Example 53, 4-(4-aminobenzyl)-6-hydroxy-5-oxo-4,5-dihydrothieno[3,2-b]pyridine-7-carboxylic acid]
4 | 750 to 2250 | 2250 to 10000 | 2250 to 10000 | CS(=O)(=O)c1cccc(Cn2c(=O)c(O)c(C(=O)O)c3sccc32)c1 [Example 63, 6-hydroxy-4-[3-(methylsulfonyl)benzyl]-5-oxo-4,5-dihydrothieno[3,2-b]pyridine-7-carboxylic acid]
5 | 250 to 750 | 750 to 2250 | 2250 to 10000 | CS(=O)(=O)Nc1cccc(Cn2c(=O)c(O)c(C(=O)O)c3sccc32)c1 [Example 78, 6-hydroxy-4-[3-(methylsulfonamido)benzyl]-5-oxo-4,5-dihydrothieno[3,2-b]pyridine-7-carboxylic acid]
6 | 250 to 750 | 2250 to 10000 | 2250 to 10000 | O=C(O)c1c(O)c(=O)n(Cc2ccc(Oc3ccccc3)cc2)c2ccsc12 [Example 81, 6-hydroxy-5-oxo-4-(4-phenoxybenzyl)-4,5-dihydrothieno[3,2-b]pyridine-7-carboxylic acid]
7 | < 200 | 250 to 750 | 250 to 750 | O=C(O)c1c(O)c(=O)n(Cc2cnn(-c3ccccc3)c2)c2ccsc12 [Example 84, 6-hydroxy-5-oxo-4-[(1-phenyl-1H-pyrazol-4-yl)methyl]-4,5-dihydrothieno[3,2-b]pyridine-7-carboxylic acid]
8 | 250 to 750 | 2250 to 10000 | 750 to 2250 | O=C(O)c1c(O)c(=O)n(Cc2nnc(-c3ccccc3)o2)c2ccsc12 [Example 85, 6-hydroxy-5-oxo-4-[(5-phenyl-1,3,4-oxadiazol-2-yl)methyl]-4,5-dihydrothieno[3,2-b]pyridine-7-carboxylic acid]
9 | 250 to 750 | 750 to 2250 | 750 to 2250 | O=C(O)c1c(O)c(=O)n(Cc2nc(-c3ccccc3)no2)c2ccsc12 [Example 86, 6-hydroxy-5-oxo-4-[(3-phenyl-1,2,4-oxadiazol-5-yl)methyl]-4,5-dihydrothieno[3,2-b]pyridine-7-carboxylic acid]
10 | < 200 | 2250 to 10000 | 2250 to 10000 | Cc1ncc(Cn2c(=O)c(O)c(C(=O)O)c3sccc32)s1 [Example 91, 6-hydroxy-4-[(2-methylthiazol-5-yl)methyl]-5-oxo-4,5-dihydrothieno[3,2-b]pyridine-7-carboxylic acid]
11 | < 200 | 750 to 2250 | 2250 to 10000 | O=C(O)c1c(O)c(=O)n(Cc2ccc3[nH]cnc3c2)c2ccsc12 [Example 99, 4-[(1H-benzo[d]imidazol-5-yl)methyl]-6-hydroxy-5-oxo-4,5-dihydrothieno[3,2-b]pyridine-7-carboxylic acid]
12 | 250 to 750 | 250 to 750 | 2250 to 10000 | O=C(O)c1c(O)c(=O)n(Cc2cnc3ccccc3c2)c2ccsc12 [Example 101, 6-hydroxy-5-oxo-4-(quinolin-3-ylmethyl)-4,5-dihydrothieno[3,2-b]pyridine-7-carboxylic acid]

Further lines, the molecule ahead of its results:

Row | SMILES | IC50 [1] [nM] | IC50 [2] [nM] | IC50 [3] [nM]
13 | COc1ccc(Cn2c(=O)c(O)c(C(=O)O)c3sc(Cc4ccccc4)cc32)cc1 [Example 29, 2-benzyl-6-hydroxy-4-(4-methoxybenzyl)-5-oxo-4,5-dihydrothieno[3,2-b]pyridine-7-carboxylic acid] | 2250 to 10000 | 2250 to 10000 | 2250 to 10000
14 | O=C(O)c1c(O)c(=O)n(Cc2cccc(Cl)c2)c2ccsc12 [Example 34, 4-(3-chlorobenzyl)-6-hydroxy-5-oxo-4,5-dihydrothieno[3,2-b]pyridine-7-carboxylic acid] | < 200 | 2250 to 10000 | 2250 to 10000
15 | CC(=O)Nc1ccc(Cn2c(=O)c(O)c(C(=O)O)c3sccc32)cc1 [Example 40, 4-(4-acetamidobenzyl)-6-hydroxy-5-oxo-4,5-dihydrothieno[3,2-b]pyridine-7-carboxylic acid] | < 200 | 2250 to 10000 | 2250 to 10000
16 | O=C(O)c1c(O)c(=O)n(CC2CCOC2)c2ccsc12 (stereo not drawn) [Example 42, 6-hydroxy-5-oxo-4-((tetrahydrofuran-3-yl)methyl)-4,5-dihydrothieno[3,2-b]pyridine-7-carboxylic acid] | 2250 to 10000 | 2250 to 10000 | 2250 to 10000
17 | CS(=O)(=O)c1ccc(Cn2c(=O)c(O)c(C(=O)O)c3sccc32)cc1 [Example 50, 6-hydroxy-4-(4-(methylsulfonyl)benzyl)-5-oxo-4,5-dihydrothieno[3,2-b]pyridine-7-carboxylic acid] | 250 to 750 | 750 to 2250 | 2250 to 10000
18 | O=C(O)c1c(O)c(=O)n(Cc2cnc[nH]2)c2ccsc12 [Example 75, 4-[(1H-imidazol-5-yl)methyl]-6-hydroxy-5-oxo-4,5-dihydrothieno[3,2-b]pyridine-7-carboxylic acid] | 750 to 2250 | 2250 to 10000 | > 10000
19 | Cc1cc(Cn2c(=O)c(O)c(C(=O)O)c3sccc32)on1 [Example 83, 6-hydroxy-4-[(3-methylisoxazol-5-yl)methyl]-5-oxo-4,5-dihydrothieno[3,2-b]pyridine-7-carboxylic acid] | 250 to 750 | > 10000 | > 10000
20 | O=C(O)c1c(O)c(=O)n(Cc2cnn(-c3cccnc3)c2)c2ccsc12 [Example 87, 6-hydroxy-5-oxo-4-{[1-(pyridin-3-yl)-1H-pyrazol-4-yl]methyl}-4,5-dihydrothieno[3,2-b]pyridine-7-carboxylic acid] | < 200 | 250 to 750 | 750 to 2250
21 | O=C(O)c1c(O)c(=O)n(Cc2noc(-c3ccccc3)n2)c2ccsc12 [Example 88, 6-hydroxy-5-oxo-4-[(5-phenyl-1,2,4-oxadiazol-3-yl)methyl]-4,5-dihydrothieno[3,2-b]pyridine-7-carboxylic acid] | 750 to 2250 | 250 to 750 | 2250 to 10000
22 | Cn1cc(Cn2c(=O)c(O)c(C(=O)O)c3sccc32)cn1 [Example 90, 6-hydroxy-4-[(1-methyl-1H-pyrazol-4-yl)methyl]-5-oxo-4,5-dihydrothieno[3,2-b]pyridine-7-carboxylic acid] | < 200 | 2250 to 10000 | 2250 to 10000
23 | N#Cc1ccccc1-n1cc(Cn2c(=O)c(O)c(C(=O)O)c3sccc32)cn1 [Example 111, 4-{[1-(2-cyanophenyl)-1H-pyrazol-4-yl]methyl}-6-hydroxy-5-oxo-4,5-dihydrothieno[3,2-b]pyridine-7-carboxylic acid] | 250 to 750 | 250 to 750 | 750 to 2250
